Data taken from ChEMBL document CHEMBL1149090, “Synthesis of a potent transition-state inhibitor of 5'-deoxy-5'-methylthioadenosine phosphorylase” (J Med Chem, 2004).
Calls of active or inactive are those of the source. The rule behind the calls is not given here.

Tests used:
MOLT-4 [1] = test: Tested for inhibition of MOLT-4 cells proliferation in the presence of 3 uM MTA; format: functional, cell-based; settings: Homo sapiens
[2] = target: T1, S-methyl-5'-thioadenosine phosphorylase (Homo sapiens, UniProt Q13126); test: Inhibitory concentration against Methylthioadenosine phosphorylase
T1 sequence (Q13126 whole entry): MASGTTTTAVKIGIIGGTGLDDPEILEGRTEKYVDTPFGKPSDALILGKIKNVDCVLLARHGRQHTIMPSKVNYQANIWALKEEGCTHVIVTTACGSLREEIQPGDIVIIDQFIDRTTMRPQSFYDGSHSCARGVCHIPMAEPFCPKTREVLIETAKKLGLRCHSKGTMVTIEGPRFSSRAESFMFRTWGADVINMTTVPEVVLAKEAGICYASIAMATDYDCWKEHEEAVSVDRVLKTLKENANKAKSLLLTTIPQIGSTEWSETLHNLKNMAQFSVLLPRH

MOLT-4 [3] = test: Tested for inhibition of MOLT-4 cells proliferation in the presence of 100 nM methotrexate and 10 uM of the compound; not significant; format: functional, cell-based; settings: Homo sapiens
MOLT-4 [4] = test: Tested for inhibition of MOLT-4 cells proliferation up to 10 uM; No Inhibition; format: functional, cell-based; settings: Homo sapiens

With CSC[C@H]1N[C@@H](c2c[nH]c3c(N)ncnc23)[C@H](O)[C@@H]1O the IC50 (MOLT-4 [1]) was 1000 nM, the IC50 [2] was 1.2 nM and the inhibition (MOLT-4 [3]) was “inactive”. The inhibition (MOLT-4 [4]) was “inactive”.
